From patent US10772858B2, “Benzhydrol derivatives for the management of conditions related to hypoxia inducible factors” (GEORGIA STATE UNIVERSITY RESEARCH FOUNDATION, priority 2015, dated 2020)

Assays:
[1] = test system: LN229 cells; assay: Toxicity to LN229 cells in the presence of galactose; assay type: cell-based, human
Excerpt: To be metabolized, galactose has to be converted into glucose in an energy consuming process that cannot be balanced by glycolytic metabolism. […] KCN1 is toxic to LN229 cells in the presence of galactose. […] Thus, in certain embodiments, the disclosure contemplates administering compounds disclosed herein in combination with a restricted or low glucose diet optionally in combination with galactose.

[2] = biological target: mitochondrial Complex I (NADH:ubiquinone oxidoreductase); assay: MitoCheck Complex I activity assay (Cayman Chemicals #700930); assay type: biochemical
Excerpt: Complex I (NADH:ubiquinone oxidoreductase or NADH dehydrogenase (ubiquinone)) is a complex of enzymes of the respiratory chains that catalyzes the transfer of electrons from NADH to coenzyme Q10 (CoQ10) located in the inner mitochondrial membrane. […] Cancer Medicine, 2013, 2(5): 611-624. […] Interference with mitochondrial function to reduce hypoxia-induced HIF-1 activity in tumors is indicated as a therapeutic approach to overcome chemo- and radiotherapy resistance of hypoxic tumors. Helbig et al. report BAY 87-2243 improves local tumor control after fractionated irradiation in a schedule-dependent manner in head and neck human xenografts. Radiation Oncology 2014, 9:207. Santidrian et al. report mitochondrial complex I activity and NAD+/NADH balance regulate breast cancer progression. J Clin Invest, 2013, 123(3):1068-81. See also Ellinghaus et al., Cancer Med, 2013, 2(5):611-624. Chang et al., Clin Cancer Res, 2015, 21(2):335-46; Fulda et al., Antioxid Redox Signal, 2011, 15:2937-2949; Wenner, J Cell Physiol, 2012, 227:450-456; Fulda et al., Nat Rev Drug Discov, 2010, 9:447-464.
It has been discovered that certain HIF inhibitors disclosed herein are also mitochondrial inhibitors. […] KCN1 induced acidification of media may be due to the consequence of its mitochondrial inhibiting activity. […]

[3] = test system: cell culture media; assay: Acidification of cell culture media (lactate production); assay type: cell-based; settings: due to increased lactate production
Excerpt: It has been discovered that certain HIF inhibitors disclosed herein are also mitochondrial inhibitors. […] KCN1 induced acidification of media may be due to the consequence of its mitochondrial inhibiting activity. Inhibiting the mitochondrial complex I interferes with the normal functions of the electron transport chain. This in effect can damage DNA and specific components of the mitochondria which leads to cell death through the generation of reactive oxygen species.

[4] = test system: HIF-1α; settings: cited from earlier work
[5] = test system: H460 xenograft; settings: H460 xenograft model; cited from earlier work
[6] = test system: mitochondrial complex I; settings: cited from earlier work

| Structure (SMILES) | toxicity to LN229 cells [1] | IC50 [2] | acidification of cell culture media [3] | HIF-1α inhibition [4] | antitumor activity in vivo [5] | mitochondrial complex I activity inhibition [6] |
| --- | --- | --- | --- | --- | --- | --- |
| COc1ccc(S(=O)(=O)N(Cc2ccc3c(c2)C=CC(C)(C)O3)c2ccccc2)cc1OC [KCN1] | toxic | ~15 µM | strongly acidifies cell culture media |  |  |  |
| Cc1cc(-c2nc(-c3ccc(OC(F)(F)F)cc3)no2)nn1Cc1ccnc(N2CCN(C3CC3)CC2)c1 [BAY 87-2243] |  |  |  | inhibits HIF-1α | Antitumor activity of BAY 87-2243 in vivo was demonstrated | inhibits mitochondrial complex I activity |
